This experiment deals with human LPA1 receptor (Homo sapiens (Human), UniProt Q92633). As to the kind of experiment: Beta-arrestin recruitment assay to determine IC50 values for human LPAR1. As to conditions: antagonist mode, Tango EDG2-bla U2OS cells, LPA 18:1 500 nM final. Format: cell-based. In outline: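 Tango EDG2-bla U2OS cells: LPA-driven beta-arrestin/TEV protease recruitment releases Gal4-VP16, inducing beta-lactamase reporter read with live-cell substrate. Cells seeded 20 h at 37 °C beforehand. IC50 is antagonist concentration inhibiting 50% of maximal response.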
human LPA1 receptor, sequence (Q92633 whole entry, the tested form may be a part): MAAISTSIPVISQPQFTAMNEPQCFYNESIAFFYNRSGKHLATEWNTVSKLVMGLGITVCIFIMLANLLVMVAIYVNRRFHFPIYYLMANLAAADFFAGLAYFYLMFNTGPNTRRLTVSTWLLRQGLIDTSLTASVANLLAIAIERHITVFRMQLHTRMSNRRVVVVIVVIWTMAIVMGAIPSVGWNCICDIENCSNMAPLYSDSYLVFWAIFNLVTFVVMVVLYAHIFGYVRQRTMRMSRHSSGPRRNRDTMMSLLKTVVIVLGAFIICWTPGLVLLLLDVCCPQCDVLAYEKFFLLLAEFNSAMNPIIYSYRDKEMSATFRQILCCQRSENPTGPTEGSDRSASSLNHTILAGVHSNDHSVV
A general note: Activated receptors often draw arrestin, which recruitment assays turn into a signal.
Consider `COC(=O)c1cc(N2CC(C(=O)Nc3ccc(C)nc3OC(F)F)(c3ccccc3C(C)C)C2)ncn1` [Ex 18-12, methyl 6-(3-((2-(difluoromethoxy)-6-methylpyridin-3-yl)carbamoyl)-3-(2-isopropylphenyl)azetidin-1-yl)pyrimidine-4-carboxylate], for which the half-inhibitory concentration (IC50) – broadly, the midpoint of a concentration-inhibition curve – was found to be 11 nM.

`Cc1ccc(NC(=O)C2(c3ccccc3C(C)C)CN(C(=O)CN3CC(=O)NC3=O)C2)c(OC(F)F)n1` [Ex 12-126, N-(2-(difluoromethoxy)-6-methylpyridin-3-yl)-1-(2-(2,4-dioxoimidazolidin-1-yl)acetyl)-3-(2-isopropylphenyl)azetidine-3-carboxamide] registered an IC50 of 46 nM.

`CC(C)c1ccccc1C1(C(=O)Nc2cccnc2OC(F)F)CN(S(=O)(=O)CCC(=O)OCc2ccccc2)C1` [Ex 13-9, benzyl 3-((3-((2-(difluoromethoxy)pyridin-3-yl)carbamoyl)-3-(2-isopropylphenyl)azetidin-1-yl)sulfonyl)propanoate] yielded an IC50 of 37 nM.

`CCOC(=O)C1(C(=O)N2CC(C(=O)Nc3ccc(C)nc3OC(F)F)(c3ccccc3C(C)C)C2)CNC1` [Ex 12-113, ethyl 3-(3-((2-(difluoromethoxy)-6-methylpyridin-3-yl)carbamoyl)-3-(2-isopropylphenyl)azetidine-1-carbonyl)azetidine-3-carboxylate] displayed an IC50 of 53 nM.

As for `COC(=O)c1cc(S(=O)(=O)N2CC(C(=O)Nc3ccc(C)nc3OC(F)F)(c3ccccc3C(C)C)C2)on1` [Ex 13-26, methyl 5-((3-((2-(difluoromethoxy)-6-methylpyridin-3-yl)carbamoyl)-3-(2-isopropylphenyl)azetidin-1-yl)sulfonyl)isoxazole-3-carboxylate], the IC50 was determined as 25 nM.

For `CONC(=O)CC(=O)N1CC(C(=O)Nc2ccc(C)nc2OC(F)F)(c2ccccc2C(C)C)C1` [Ex 12-125, N-(2-(difluoromethoxy)-6-methylpyridin-3-yl)-3-(2-isopropylphenyl)-1-(3-(methoxyamino)-3-oxopropanoyl)azetidine-3-carboxamide], the midpoint of inhibition, the IC50, lay at 35 nM.

`Cc1ccc(NC(=O)C2(c3ccccc3C(C)C)CN(C(=O)CN(CC(=O)O)C3CC3)C2)c(OC(F)F)n1` [Ex 43, N-cyclopropyl-N-(2-(3-((2-(difluoromethoxy)-6-methylpyridin-3-yl)carbamoyl)-3-(2-isopropylphenyl)azetidin-1-yl)-2-oxoethyl)glycine] yielded a half-inhibitory concentration (IC50) of 14 nM.

Regarding `Cc1ccc(NC(=O)C2(c3ncccc3C(C)C)CN(c3nc(C)ncc3F)C2)c(OC(F)F)n1` [Ex 64, N-(2-(difluoromethoxy)-6-methylpyridin-3-yl)-1-(5-fluoro-2-methylpyrimidin-4-yl)-3-(3-isopropylpyridin-2-yl)azetidine-3-carboxamide], the IC50 was determined as 15 nM.

`Cc1ccc(NC(=O)C2(c3ccccc3C(C)C)CN(C(=O)N3CCN(C)CC3)C2)c(OC(F)F)n1` [Ex 17-26, N-(2-(difluoromethoxy)-6-methylpyridin-3-yl)-3-(2-isopropylphenyl)-1-(4-methylpiperazine-1-carbonyl)azetidine-3-carboxamide] returned an IC50 of 240 nM.

For `Cc1ccc(NC(=O)C2(c3ccccc3C(C)C)CN(C(=O)NC3(C(=O)O)CC3)C2)c(OC(F)F)n1` [Ex 17-11, 1-(3-((2-(difluoromethoxy)-6-methylpyridin-3-yl)carbamoyl)-3-(2-isopropylphenyl)azetidine-1-carboxamido)cyclopropane-1-carboxylic acid], it took 46 nM to reach half-maximal inhibition (IC50).

Regarding `Cc1ccc(NC(=O)C2(c3ccccc3C(C)C)CCN(C(N)=O)CC2)c(OC(F)F)n1` [Ex 17-20, N4-(2-(difluoromethoxy)-6-methylpyridin-3-yl)-4-(2-isopropylphenyl)piperidine-1,4-dicarboxamide], inhibition was half-maximal at 11 nM (IC50).

`COC(=O)C(C)(C)CNC(=O)N1CC(C(=O)Nc2ccc(C)nc2OC(F)F)(c2ccccc2C(C)C)C1` [Ex 17-16, methyl 3-(3-((2-(difluoromethoxy)-6-methylpyridin-3-yl)carbamoyl)-3-(2-isopropylphenyl)azetidine-1-carboxamido)-2,2-dimethylpropanoate] came in with an IC50 of 9 nM.

Consider `COCCNS(=O)(=O)N1CC(C(=O)Nc2cccnc2OC)(c2ccccc2)C1` [Ex 86, 1-(N-(2-methoxyethyl)sulfamoyl)-N-(2-methoxypyridin-3-yl)-3-phenylazetidine-3-carboxamide, reference compound], for which the IC50 was more than 10000 nM.

Take `Cc1ccc(NC(=O)C2(c3ccccc3C(C)C)CN(C(=O)Cc3cc(O)n[nH]3)C2)c(OC(F)F)n1` [Ex 12-24, N-(2-(difluoromethoxy)-6-methylpyridin-3-yl)-1-(2-(3-hydroxy-1H-pyrazol-5-yl)acetyl)-3-(2-isopropylphenyl)azetidine-3-carboxamide]: the IC50 was found to be 19 nM.

`COC(=O)COC(=O)N1CC(C(=O)Nc2ncc(C)cc2OC(F)F)(c2ccccc2C(C)C)C1` [Ex 83-1, 2-methoxy-2-oxoethyl 3-((3-(difluoromethoxy)-5-methylpyridin-2-yl)carbamoyl)-3-(2-isopropylphenyl)azetidine-1-carboxylate] gave an IC50 of 74 nM.

The compound `Cc1ccc(NC(=O)C2(c3ccccc3C(C)C)CN(CCCC(C)(C)C#N)C2)c(OC(F)F)n1` [Ex 11-60, 1-(4-cyano-4-methylpentyl)-N-(2-(difluoromethoxy)-6-methylpyridin-3-yl)-3-(2-isopropylphenyl)azetidine-3-carboxamide] returned an IC50 of 47 nM.

Turning to `Cc1ccc(NC(=O)C2(c3ccccc3C(C)C)CN(C(=O)C(C)(C)CC(=O)O)C2)c(OC(F)F)n1` [Ex 12-91, 4-(3-((2-(difluoromethoxy)-6-methylpyridin-3-yl)carbamoyl)-3-(2-isopropylphenyl)azetidin-1-yl)-3,3-dimethyl-4-oxobutanoic acid], half-maximal inhibition (IC50) was put at 5 nM.

`Cc1ccc(NC(=O)C2(c3ccccc3C(C)C)CN(C(=O)CCNCCO)C2)c(OC(F)F)n1` [Ex 12-60, N-(2-(difluoromethoxy)-6-methylpyridin-3-yl)-1-(3-((2-hydroxyethyl)amino)propanoyl)-3-(2-isopropylphenyl)azetidine-3-carboxamide] returned an IC50 of 58 nM.

The compound `Cc1ccc(NC(=O)C2(c3ccccc3C(C)C)CN(c3ncc(C(=O)O)cn3)C2)c(OC(F)F)n1` [Ex 18-5, 2-(3-((2-(difluoromethoxy)-6-methylpyridin-3-yl)carbamoyl)-3-(2-isopropylphenyl)azetidin-1-yl)pyrimidine-5-carboxylic acid] came in with an IC50 of 11 nM.

For the compound `COc1cc(Br)cnc1NC(=O)C1(c2ccccc2C(C)C)CNC1` [Ex 71, N-(5-bromo-3-methoxypyridin-2-yl)-3-(2-isopropylphenyl)azetidine-3-carboxamide], it took 564 nM to reach half-maximal inhibition (IC50).

As for `Cc1ccc(NC(=O)C2(c3cc(F)ccc3C(C)C)CN(C(=O)CC(C)(C)C(=O)O)C2)c(OC(F)F)n1` [Ex 39-5, 4-(3-((2-(difluoromethoxy)-6-methylpyridin-3-yl)carbamoyl)-3-(5-fluoro-2-isopropylphenyl)azetidin-1-yl)-2,2-dimethyl-4-oxobutanoic acid], the IC50 worked out at 10 nM.

As for `Cc1ccc(NC(=O)C2(c3ccccc3C(C)C)CN(C(=O)c3cn[nH]c3)C2)c(OC(F)F)n1` [Ex 12-15, N-(2-(difluoromethoxy)-6-methylpyridin-3-yl)-3-(2-isopropylphenyl)-1-(1H-pyrazole-4-carbonyl)azetidine-3-carboxamide], the IC50 was 36 nM.

With `CCOC(=O)CNS(=O)(=O)N1CC(C(=O)Nc2ccc(C)nc2OC(F)F)(c2ccccc2C(C)C)C1` [Ex 15-1, Ethyl ((3-((2-(difluoromethoxy)-6-methylpyridin-3-yl)carbamoyl)-3-(2-isopropylphenyl)azetidin-1-yl)sulfonyl)glycinate], it took 5 nM to reach half-maximal inhibition (IC50).

The compound `Cc1ccc(NC(=O)C2(c3ccccc3C(C)C)CN(C(=O)/C=C/C(=O)O)C2)c(OC(F)F)n1` [Ex 12-75, (E)-4-(3-((2-(difluoromethoxy)-6-methylpyridin-3-yl)carbamoyl)-3-(2-isopropylphenyl)azetidin-1-yl)-4-oxobut-2-enoic acid] registered an IC50 of 50 nM.

Take `CC(C)c1ccccc1C1(C(=O)Nc2ncc(Br)cc2OC(F)F)CN(S(N)(=O)=O)C1` [Ex 81-4, N-(5-bromo-3-(difluoromethoxy)pyridin-2-yl)-3-(2-isopropylphenyl)-1-sulfamoylazetidine-3-carboxamide]: the IC50 worked out at 2 nM.

As for `Cc1ccc(NC(=O)C2(c3ccccc3C(C)C)CN(Cc3ccnn3C)C2)c(OC(F)F)n1` [Ex 11-22, N-(2-(difluoromethoxy)-6-methylpyridin-3-yl)-3-(2-isopropylphenyl)-1-((1-methyl-1H-pyrazol-5-yl)methyl)azetidine-3-carboxamide], the IC50 amounted to 108 nM.

Turning to `Cc1ccc(NC(=O)C2(c3ccccc3C(C)C)CN(S(=O)(=O)CCC(=O)NO)C2)c(OC(F)F)n1` [Ex 13-29, N-(2-(difluoromethoxy)-6-methylpyridin-3-yl)-1-((3-(hydroxyamino)-3-oxopropyl)sulfonyl)-3-(2-isopropylphenyl)azetidine-3-carboxamide], the IC50 was 10 nM.

`COC(CC(=O)O)S(=O)(=O)N1CC(C(=O)Nc2ccc(C)nc2OC(F)F)(c2ccccc2C(C)C)C1` (stereo not drawn) [Ex 13-27, 3-((3-((2-(difluoromethoxy)-6-methylpyridin-3-yl)carbamoyl)-3-(2-isopropylphenyl)azetidin-1-yl)sulfonyl)-3-methoxypropanoic acid] had an IC50 of 28 nM.

Regarding `CCOC(=O)CNCCN1CC(C(=O)Nc2ccc(C)nc2OC(F)F)(c2ccccc2C(C)C)C1` [Ex 11-79, Ethyl (2-(3-((2-(difluoromethoxy)-6-methylpyridin-3-yl)carbamoyl)-3-(2-isopropylphenyl)azetidin-1-yl)ethyl)glycinate], the IC50 amounted to 19 nM.

`Cc1ccc(NC(=O)C2(c3ccccc3C(C)C)CCN(C(=O)CC3(O)COC3)CC2)c(OC(F)F)n1` [Ex 12-14, N-(2-(difluoromethoxy)-6-methylpyridin-3-yl)-1-(2-(3-hydroxyoxetan-3-yl)acetyl)-4-(2-isopropylphenyl)piperidine-4-carboxamide] displayed an IC50 of 7 nM.

The values above are taken from US12344597B2, “Alkoxy-substituted pyridinyl derivatives as LPA1 receptor antagonists and their use in the treatment of fibrosis” (IDORSIA PHARMACEUTICALS LTD, priority 2018, dated 2025).
